Read-outs that look alike come from different tables or passages of the source.
Experiment: Plasma pharmacokinetics of bimiralisib, non-compartmental analysis (LC-MS)
Type: in vivo, human
Conditions: for AUC(0-t) / Cmax / Tmax: human, plasma, oral; for Cmax: read-out: Cmax Mean (%CV)
Procedure: Blood samples were collected to enable full PK profiling of bimiralisib. The PK samples were taken pre-dose and at 0.5, 1, 2, 4, 6, 8, and 24 h post-dosing in the three schedules, with additional timepoints depending on the schedule (48 h in the continuous schedule, 12, 16, and 48 h in intermittent schedule A and 12, 16, and 72 h in intermittent schedule B). PK sampling was repeated on cycle 1 Day 8 (continuous schedule: pre-dose and 1 h post-dose; intermittent schedules A and B: pre-dose and 0.5, 1, 2, 4, 6, 8, and 24 h post-dose), on cycle 1 Day 15 (continuous schedule: pre-dose and 0.5, 1, 2, 4, 6 and 8 h post-dose; intermittent schedules A and B: pre-dose and 4 h post-dose), and on cycle 2 Day 1 (continuous dosing: pre-dose and 1 h post-dose). Samples were sent to a central laboratory for analysis using liquid-chromatography mass spectrometry. The pharmacokinetics of bimiralisib were determined by non-compartmental analysis. Area under the concentration vs. time curve (AUC) was calculated using the linear up log down trapezoidal method. Accumulation was calculated as the ratio of cycle 1 on Day 15 AUC0–8h versus cycle 1 on Day -3 AUC0–8h.

Structure (SMILES): Nc1cc(C(F)(F)F)c(-c2nc(N3CCOCC3)nc(N3CCOCC3)n2)cn1 [bimiralisib, 5-(4,6-Dimorpholino-1,3,5-triazin-2-yl)-4-(trifluoromethyl)pyridin-2-amine]
- AUC(0-t) (120 mg, Intermittent Dose Schedule A, 120 mg, Day -3, 4 patients, read-out: AUC0–8 Geometric Mean (%CV)): 2590 ng·h/mL
- AUC(0-t) (120 mg, Intermittent Dose Schedule A, 120 mg, Day -3, 4 patients, read-out: AUC0–24 Geometric Mean (%CV)): 5590 ng·h/mL
- Cmax (120 mg, Intermittent Dose Schedule A, 120 mg, Day -3, 4 patients): 549 ng/mL
- Tmax (120 mg, Intermittent Dose Schedule A, 120 mg, Day -3, 4 patients, read-out: Tmax Median, (Range)): 3 h
- AUC(0-t) (120 mg, Intermittent Dose Schedule B, 120 mg, Day 1, 3 patients, read-out: AUC0–8 Geometric Mean (%CV)): 1530 ng·h/mL
- AUC(0-t) (120 mg, Intermittent Dose Schedule B, 120 mg, Day 1, 3 patients, read-out: AUC0–24 Geometric Mean (%CV)): 3340 ng·h/mL
- Cmax (120 mg, Intermittent Dose Schedule B, 120 mg, Day 1, 3 patients): 471 ng/mL
- Tmax (120 mg, Intermittent Dose Schedule B, 120 mg, Day 1, 3 patients, read-out: Tmax Median, (Range)): 1 h
- AUC(0-t) (120 mg, Intermittent Dose Schedule B, 120 mg, Day 8, 3 patients, read-out: AUC0–8 Geometric Mean (%CV)): 2210 ng·h/mL
- AUC(0-t) (120 mg, Intermittent Dose Schedule B, 120 mg, Day 8, 3 patients, read-out: AUC0–24 Geometric Mean (%CV)): 5850 ng·h/mL
- Cmax (120 mg, Intermittent Dose Schedule B, 120 mg, Day 8, 3 patients): 594 ng/mL
- Tmax (120 mg, Intermittent Dose Schedule B, 120 mg, Day 8, 3 patients, read-out: Tmax Median, (Range)): 1 h
- AUC(0-t) (140 mg, Intermittent Dose Schedule A, 140 mg, Day 8, 6 patients, read-out: AUC0–8 Geometric Mean (%CV)): 3220 ng·h/mL
- Cmax (140 mg, Intermittent Dose Schedule A, 140 mg, Day 8, 6 patients): 923 ng/mL
- Tmax (140 mg, Intermittent Dose Schedule A, 140 mg, Day 8, 6 patients, read-out: Tmax Median, (Range)): 1 h
- AUC(0-t) (140 mg, Intermittent Dose Schedule A, 140 mg, Day 8, n = 3, read-out: AUC0–24 Geometric Mean (%CV)): 7590 ng·h/mL
- AUC(0-t) (140 mg, Intermittent Dose Schedule A, 140 mg, Day -3, 6 patients, read-out: AUC0–8 Geometric Mean (%CV)): 2580 ng·h/mL
- AUC(0-t) (140 mg, Intermittent Dose Schedule A, 140 mg, Day -3, 6 patients, read-out: AUC0–24 Geometric Mean (%CV)): 5810 ng·h/mL
- Cmax (140 mg, Intermittent Dose Schedule A, 140 mg, Day -3, 6 patients): 709 ng/mL
- Tmax (140 mg, Intermittent Dose Schedule A, 140 mg, Day -3, 6 patients, read-out: Tmax Median, (Range)): 1 h
- AUC(0-t) (140 mg, Intermittent Dose Schedule B, 140 mg, Day 1, 3 patients, read-out: AUC0–8 Geometric Mean (%CV)): 4150 ng·h/mL
- AUC(0-t) (140 mg, Intermittent Dose Schedule B, 140 mg, Day 1, 3 patients, read-out: AUC0–24 Geometric Mean (%CV)): 9740 ng·h/mL
- Cmax (140 mg, Intermittent Dose Schedule B, 140 mg, Day 1, 3 patients): 1010 ng/mL
- Tmax (140 mg, Intermittent Dose Schedule B, 140 mg, Day 1, 3 patients, read-out: Tmax Median, (Range)): 1 h
- AUC(0-t) (140 mg, Intermittent Dose Schedule B, 140 mg, Day 8, 3 patients, read-out: AUC0–8 Geometric Mean (%CV)): 5160 ng·h/mL
- Cmax (140 mg, Intermittent Dose Schedule B, 140 mg, Day 8, 3 patients): 1560 ng/mL
- Tmax (140 mg, Intermittent Dose Schedule B, 140 mg, Day 8, 3 patients, read-out: Tmax Median, (Range)): 1 h
- AUC(0-t) (140 mg, Intermittent Dose Schedule B, 140 mg, Day 8, n = 2, read-out: AUC0–24 Geometric Mean (%CV)): 12600 ng·h/mL
- AUC(0-t) (160 mg, Intermittent Dose Schedule A, 160 mg, Day 8, 3 patients, read-out: AUC0–8 Geometric Mean (%CV)): 4080 ng·h/mL
- AUC(0-t) (160 mg, Intermittent Dose Schedule A, 160 mg, Day 8, 3 patients, read-out: AUC0–24 Geometric Mean (%CV)): 11100 ng·h/mL
- Cmax (160 mg, Intermittent Dose Schedule A, 160 mg, Day 8, 3 patients): 857 ng/mL
- Tmax (160 mg, Intermittent Dose Schedule A, 160 mg, Day 8, 3 patients, read-out: Tmax Median, (Range)): 2 h
- AUC(0-t) (160 mg, Intermittent Dose Schedule A, 160 mg, Day -3, 3 patients, read-out: AUC0–8 Geometric Mean (%CV)): 2480 ng·h/mL
- AUC(0-t) (160 mg, Intermittent Dose Schedule A, 160 mg, Day -3, 3 patients, read-out: AUC0–24 Geometric Mean (%CV)): 5830 ng·h/mL
- Cmax (160 mg, Intermittent Dose Schedule A, 160 mg, Day -3, 3 patients): 539 ng/mL
- Tmax (160 mg, Intermittent Dose Schedule A, 160 mg, Day -3, 3 patients, read-out: Tmax Median, (Range)): 1 h
- AUC(0-t) (160 mg, Intermittent Dose Schedule B, 160 mg, Day 1, 3 patients, read-out: AUC0–8 Geometric Mean (%CV)): 1050 ng·h/mL
- AUC(0-t) (160 mg, Intermittent Dose Schedule B, 160 mg, Day 1, 3 patients, read-out: AUC0–24 Geometric Mean (%CV)): 3700 ng·h/mL
- Cmax (160 mg, Intermittent Dose Schedule B, 160 mg, Day 1, 3 patients): 317 ng/mL
- Tmax (160 mg, Intermittent Dose Schedule B, 160 mg, Day 1, 3 patients, read-out: Tmax Median, (Range)): 12 h
- AUC(0-t) (160 mg, Intermittent Dose Schedule B, 160 mg, Day 8, 3 patients, read-out: AUC0–8 Geometric Mean (%CV)): 1770 ng·h/mL
- Cmax (160 mg, Intermittent Dose Schedule B, 160 mg, Day 8, 3 patients): 325 ng/mL
- Tmax (160 mg, Intermittent Dose Schedule B, 160 mg, Day 8, 3 patients, read-out: Tmax Median, (Range)): 8 h
- AUC(0-t) (200 mg, Intermittent Dose Schedule A, 200 mg, Day 8, 4 patients, read-out: AUC0–8 Geometric Mean (%CV)): 4460 ng·h/mL
- Tmax (200 mg, Intermittent Dose Schedule A, 200 mg, Day 8, 4 patients, read-out: Tmax Median, (Range)): 2 h
- AUC(0-t) (200 mg, Intermittent Dose Schedule A, 200 mg, Day 8, n = 2, read-out: AUC0–24 Geometric Mean (%CV)): 15900 ng·h/mL
- AUC(0-t) (200 mg, Intermittent Dose Schedule A, 200 mg, Day -3, 4 patients, read-out: AUC0–8 Geometric Mean (%CV)): 3480 ng·h/mL
- AUC(0-t) (200 mg, Intermittent Dose Schedule A, 200 mg, Day -3, 4 patients, read-out: AUC0–24 Geometric Mean (%CV)): 7050 ng·h/mL
- Cmax (200 mg, Intermittent Dose Schedule A, 200 mg, Day -3, 4 patients): 1030 ng/mL
- Tmax (200 mg, Intermittent Dose Schedule A, 200 mg, Day -3, 4 patients, read-out: Tmax Median, (Range)): 2 h
- AUC(0-t) (200 mg, Intermittent Dose Schedule B, 200 mg, Day 1, 4 patients, read-out: AUC0–8 Geometric Mean (%CV)): 3190 ng·h/mL
- AUC(0-t) (200 mg, Intermittent Dose Schedule B, 200 mg, Day 1, 4 patients, read-out: AUC0–24 Geometric Mean (%CV)): 8010 ng·h/mL
- Cmax (200 mg, Intermittent Dose Schedule B, 200 mg, Day 1, 4 patients): 734 ng/mL
- Tmax (200 mg, Intermittent Dose Schedule B, 200 mg, Day 1, 4 patients, read-out: Tmax Median, (Range)): 1.5 h
- AUC(0-t) (200 mg, Intermittent Dose Schedule B, 200 mg, Day 8, 4 patients, read-out: AUC0–8 Geometric Mean (%CV)): 5800 ng·h/mL
- Cmax (200 mg, Intermittent Dose Schedule B, 200 mg, Day 8, 4 patients): 1200 ng/mL
- Tmax (200 mg, Intermittent Dose Schedule B, 200 mg, Day 8, 4 patients, read-out: Tmax Median, (Range)): 1.5 h
- AUC(0-t) (200 mg, Intermittent Dose Schedule B, 200 mg, Day 8, n = 3, read-out: AUC0–24 Geometric Mean (%CV)): 14700 ng·h/mL
- Tmax (after the first dose, all three dosing schedules, range, 0.5–48 h, read-out: Median time to reach the peak plasma concentration (Tmax)): 2 h
- Dose-exposure relationship (intermittent doses higher than 140 mg): less than linear dose-exposure relationship
